Experimental findings from patent US20210330594A1, “Fast-Acting Soft Gelatin Capsules Containing A Mixture Of Pain Reliever/Fever Reducer, Diuretic And Antihistamine” (PuraCap Pharmaceutical LLC, priority 2018, published 2021) are described below.

Each structure is given as a SMILES string. Where a name gives a salt, the structure may show the parent alone.

The nature of this data set: Stability determination of softgels under accelerated conditions (API assay). Format: physicochemical. As to conditions: for T0 % of label: softgel of Example 1, initial (T0) API assay; for Assay % of label 40° C./75% RH 1 M / Assay % of label 40° C./75% RH 2 M / Assay % of label 40° C./75% RH 3 M: softgel, accelerated conditions 40° C./75% RH. The procedure:
Manufactured softgels are evaluated to predict shelf life of the product. Softgel samples are kept under accelerated conditions (ACC) of 40° C./75% RH for 180 days. Samples are withdrawn and tested at predetermined periods for API assay and homogeneity. Results are compared against the label specification; if ACC-6M results (i.e., at 6 months) are within specification then a product shelf life of 2 years is predicted.

Regarding `CC(=O)Nc1ccc(O)cc1` [Acetaminophen], the “T0 % of label” value was 94.2 % of label, the “Assay % of label 40° C./75% RH 1 M” value is on record as 94.0 % of label, the “Assay % of label 40° C./75% RH 2 M” value is 94.1 % of label and the “Assay % of label 40° C./75% RH 3 M” value is listed as 92.2 % of label.

Regarding `COc1ccc(CN(CCN(C)C)c2ccccn2)cc1` [Pyrilamine Maleate], the “T0 % of label” value is given as 94.3 % of label, the “Assay % of label 40° C./75% RH 1 M” value was 94.0 % of label, the “Assay % of label 40° C./75% RH 2 M” value is reported as 94.2 % of label and the “Assay % of label 40° C./75% RH 3 M” value is recorded as 93.9 % of label.

As to `Cn1c(=O)c2[nH]c(Br)nc2n(C)c1=O` [Pamabrom], the “T0 % of label” value is recorded as 95.5 % of label, the “Assay % of label 40° C./75% RH 1 M” value is 95.1 % of label, the “Assay % of label 40° C./75% RH 2 M” value was 95.0 % of label and the “Assay % of label 40° C./75% RH 3 M” value was 93.4 % of label.
